Assay results published in patent US20150167062A1, “Genome-wide Method of Assessing Interactions Between Chemical Entities And Their Target Molecules” (Whitehead Institute for Biomedical Research, priority 2012, published 2015).

System: MM1.S cells, merged BRD4/JQ1 genomic regions
Assay: Specificity analysis: overlap between JQ1 Chem-Seq and BRD4 ChIP-Seq data
Type: binding, human
Protocol: Chemical crosslinking was terminated by addition of TRIS buffer, pH 7.5, to a final concentration of 300 mM TRIS. Cells were harvested using a silicon scraper, centrifuged and the derived pellets washed three times with PBS. Cell nuclei were prepared as follows: cells were lysed in 50 mM HEPES, pH 7.5, 140 mM NaCl, 1 mM EDTA, 10% Glycerol, 0.5% NP-40, 0.25% Triton X-100 plus protease inhibitor cocktail ‘complete’ (Roche), and cell nuclei were washed once with 10 mM Tris-HCL, pH 8.0, 200 mM NaCl, 1 mM EDTA, 0.5 mM EGTA and protease inhibitors. […] Finally, purified DNA fragments were massively parallel sequenced and the sequencing data analyzed as described (33). […]
All ChIP-Seq and Chem-seq datasets were aligned using Bowtie (version 0.12.2) (35) to build version NCBI36/HG18 of the human genome. […] To obtain the normalized read density of ChIP-Seq datasets in any region, ChIP-Seq reads aligning to the region were extended automatically by MACS and the density of reads per basepair (bp) was calculated. The density of reads in each region was normalized to the total number of million mapped reads producing read density in units of reads per million mapped reads per by (rpm/bp).
Chem-Seq and ChIP-Seq data was analyzed to identify genomic regions with substantial JQ 1 Chem-Seq signal but no significant BRD4 ChIP-Seq signal, reasoning these sites might represent off-target interactions of JQ1. […]

Compound: Cc1sc2c(c1C)C(c1ccc(Cl)cc1)=N[C@@H](CC(=O)OC(C)(C)C)c1nnc(C)n1-2 [JQ1]
- Off-target interaction (JQ1 Chem-Seq signal at regions of the genome without BRD4) (MM1.S cells, GLM differential binding analysis): no identifiable off-target interaction
- Genomic regions with significant differences in JQ1 Chem-Seq and BRD4 ChIP-Seq signals (out of 25,060 merged regions, FDR<=0.25, MM1.S cells): 10 regions
